Source: patent US8486935B2, “Xinafoate salt of N4-(2,2-difluoro-4H-benzo[1,4]oxazin-3-one)-6-yl]-5-fluoro-N2-[3-(methylaminocarbonylmethyleneoxy)phenyl]2,4-pyrimidinediamine” (Rigel Pharmaceuticals, Inc., priority 2007, dated 2013)
Counter-ions that a name gives are not always drawn.

Key:
Format in all cases: physicochemical
[1] = Solvation/hydration by thermogravimetric analysis (TGA); details: for hydration or solvation: TGA, ambient to 300° C.
Protocol: Solvation/Hydration was assessed by thermogravimetric analysis (TGA) using a TA Instruments Hi-Res TGA 2950 instrument measuring the weight loss of a 8.8 mg sample in an open platinum pan. The sample was heated at 20° C./min from ambient to 300° C. utilizing a nitrogen furnace purge gas.

[2] = Hygroscopicity by dynamic vapour sorption
Protocol: Hygroscopicity was assessed using dynamic vapour sorption equipment (Surface Measurement Systems Ltd, model DVS-1). The analysis was conducted at 30° C. with a nitrogen gas flow of 200 cc/min. Water sorption and desorption were determined in the range 0 to 90% relative humidity (RH) using 15% RH intervals. Exposure was for a minimum of 2 hours at each humidity or until the rate of weight change was less than 0.0003%/minute (averaged over 10 minutes). Sample weight was 12.6 mg. The sample was weighed using a CAHN D-200, seven place digital recording balance, which is an integral part of the equipment.

[3] = Solid form after micronisation using jet milling; details: following micronisation using jet milling
[4] = Solid state stability and excipient compatibility of the lactose monohydrate blend; details: for % main band remaining versus control: micronised, 1:100 blend with lactose monohydrate, control 5° C./0% humidity
Protocol: In order to test for solid state stability and excipient compatibility, a sample of the xinafoate salt was micronised by jet milling (particle size: D10=0.24 μm, D50=1.15 μm, D90=4.29 μm) and the resulting powder was blended at a 1:100 weight ratio with lactose monohydrate (Respitose grade SV008). Samples were stored for 12 weeks at 25° C./60% relative humidity and 40° C./75% relative humidity and assayed for remaining drug content and impurities at 4, 8 and 12 weeks. A control sample was stored at 5° C./0% humidity.

[5] = lactose blend, up to 12 weeks at 25° C./60% RH and 40° C./75% RH

SMILES | hydration or solvation [1] | solvate formation ([1]; nine solvents tested) | hygroscopicity ([2]; 0 to 90% RH, 30° C.) | water sorption ([2]; 90% RH, 30° C., before micronisation) [%] | water sorption ([2]; 90% relative humidity, following micronisation using jet milling) [%] | change in degree of crystallinity [3] | change in solid form [3] | % main band remaining versus control ([4]; 25° C./60% RH, 4 weeks) [%] | % main band remaining versus control ([4]; 25° C./60% RH, 8 weeks) [%] | % main band remaining versus control ([4]; 25° C./60% RH, 12 weeks) [%] | % main band remaining versus control ([4]; 40° C./75% RH, 4 weeks) [%] | % main band remaining versus control ([4]; 40° C./75% RH, 8 weeks) [%] | % main band remaining versus control ([4]; 40° C./75% RH, 12 weeks) [%] | change in physical form during storage [4, 5] | degradation during storage [4, 5]
CNC(=O)COc1cccc(Nc2ncc(F)c(Nc3ccc4c(c3)NC(=O)C(F)(F)O4)n2)c1 [free base, N4-[(2,2-difluoro-4H-benzo[1,4]oxazin-3-one)-6-yl]-5-fluoro-N2-[3-(methylaminocarbonylmethyleneoxy)phenyl]-2,4-pyrimidinediamine] | hydrates to form a hemihydrate | formed a different solvated form in each of nine solvents tested |  |  |  |  |  |  |  |  |  |  |  |  | 
CNC(=O)COc1cccc(Nc2ncc(F)c(Nc3ccc4c(c3)NC(=O)C(F)(F)O4)n2)c1 [xinafoate salt, xinafoate salt of N4-[(2,2-difluoro-4H-benzo[1,4]oxazin-3-one)-6-yl]-5-fluoro-N2-[3-(methylaminocarbonylmethyleneoxy)phenyl]-2,4-pyrimidinediamine] | does not show any hydration or salvation |  | essentially non-hygroscopic | 0.6 | 0.9 | negligible decrease in the degree of crystallinity | no change in solid form | 100.2 | 99.9 | 100.1 | 100.4 | 100.0 | 100.0 | no change in physical form was detected | no significant degradation was observed
